Source: PubChem BioAssay AID248 (DTP/NCI, 2004)
“And” between values parts separate entries of the source, which are not always exact repeats. Equal entries are not always repeated. Inconclusive results and toxic doses are left out. Cut-off read from the data, not from the text of the source: active = T/C of 150% or more; inactive = T/C below 125%.

System: L1210 leukemia ip in BDF1 mice, survival T/C
Test: NCI In Vivo Anticancer Drug Screen. Data for tumor model L1210 Leukemia (intraperitoneal) in B6D2F1 (BDF1) mice
Details: higher = longer survival
How it was run: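 Antitumor effect is assessed in tumor-bearing animals. Survival in the compound arm is compared with a vehicle-dosed control arm and expressed as their quotient.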

[1] = endpoint: mean survival time, dose: 25.0 mg/kg/injection, schedule: Q01DX009 (ip), vehicle: saline with Tween-80
[2] = endpoint: mean survival time, dose: 100.0 mg/kg/injection, schedule: Q04DX003 (ip), vehicle: saline with Tween-80
[3] = endpoint: mean survival time, dose: 200.0 mg/kg/injection, schedule: Q04DX003 (ip), vehicle: saline with Tween-80
[4] = endpoint: mean survival time, dose: 400.0 mg/kg/injection, schedule: Q04DX003 (ip), vehicle: saline with Tween-80
[5] = endpoint: mean survival time, dose: 100.0 mg/kg/injection, schedule: Q01DX009 (ip), vehicle: Klucel (hydroxypropylcellulose) (HPC)
[6] = endpoint: mean survival time, dose: 200.0 mg/kg/injection, schedule: Q01DX009 (ip), vehicle: Klucel (hydroxypropylcellulose) (HPC)
[7] = endpoint: mean survival time, dose: 400.0 mg/kg/injection, schedule: Q01DX009 (ip), vehicle: Klucel (hydroxypropylcellulose) (HPC)
[8] = endpoint: mean survival time, dose: 100.0 mg/kg/injection, schedule: Q01DX001 (ip), vehicle: saline with Tween-80
[9] = endpoint: mean survival time, dose: 200.0 mg/kg/injection, schedule: Q01DX001 (ip), vehicle: saline with Tween-80
[10] = endpoint: mean survival time, dose: 400.0 mg/kg/injection, schedule: Q01DX001 (ip), vehicle: saline with Tween-80
[11] = endpoint: mean survival time, dose: 50.0 mg/kg/injection, schedule: Q01DX009 (ip), vehicle: saline with Tween-80
[12] = endpoint: mean survival time, dose: 100.0 mg/kg/injection, schedule: Q01DX009 (ip), vehicle: saline with Tween-80
[13] = endpoint: mean survival time, dose: 100.0 mg/kg/injection, schedule: Q04DX002 (ip), vehicle: saline with Tween-80
[14] = endpoint: mean survival time, dose: 100.0 mg/kg/injection, schedule: Q04DX002 (ip), vehicle: saline
[15] = endpoint: mean survival time, dose: 100.0 mg/kg/injection, schedule: Q04DX002 (ip), vehicle: Klucel (hydroxypropylcellulose) (HPC)
[16] = endpoint: mean survival time, dose: 200.0 mg/kg/injection, schedule: Q04DX002 (ip), vehicle: Klucel (hydroxypropylcellulose) (HPC)
[17] = endpoint: mean survival time, dose: 50.0 mg/kg/injection, schedule: Q01DX009 (ip), vehicle: Klucel (hydroxypropylcellulose) (HPC)
[18] = endpoint: mean survival time, dose: 100.0 mg/kg/injection, schedule: Q04DX003 (ip), vehicle: saline

Measured: T/C

O=NN(CCCl)C(=O)C1CCCCC1
inactive: endpoint: mean survival time, dose: 4.5 mg/kg/injection, schedule: Q01DX001 (ip), vehicle: carboxymethylcellulose (CMC) 110 % of control | endpoint: mean survival time, dose: 9.0 mg/kg/injection, schedule: Q01DX001 (ip), vehicle: carboxymethylcellulose (CMC) 112 % of control | endpoint: mean survival time, dose: 18.0 mg/kg/injection, schedule: Q01DX001 (ip), vehicle: carboxymethylcellulose (CMC) 113 % of control | endpoint: mean survival time, dose: 26.0 mg/kg/injection, schedule: Q01DX001 (ip), vehicle: carboxymethylcellulose (CMC) 112 % of control | endpoint: mean survival time, dose: 40.0 mg/kg/injection, schedule: Q01DX001 (ip), vehicle: carboxymethylcellulose (CMC) 108 % of control | endpoint: mean survival time, dose: 60.0 mg/kg/injection, schedule: Q01DX001 (ip), vehicle: carboxymethylcellulose (CMC) 110 % of control | endpoint: mean survival time, dose: 93.0 mg/kg/injection, schedule: Q01DX001 (ip), vehicle: carboxymethylcellulose (CMC) 113 % of control | endpoint: mean survival time, dose: 187.0 mg/kg/injection, schedule: Q01DX001 (ip), vehicle: carboxymethylcellulose (CMC) 116 % of control

CSc1cc(-c2ccccc2)c2ccccc2[n+]1C
inactive: endpoint: mean survival time, dose: 12.5 mg/kg/injection, schedule: Q04DX003 (ip), vehicle: saline with Tween-80 112 % of control | [1] 116 % of control | endpoint: mean survival time, dose: 25.0 mg/kg/injection, schedule: Q04DX003 (ip), vehicle: saline with Tween-80 112 % of control | endpoint: mean survival time, dose: 50.0 mg/kg/injection, schedule: Q04DX003 (ip), vehicle: saline with Tween-80 90 % of control | [2] 94 % of control

CC(Cl)CN(C)c1ccc2ccccc2c1 (stereo not drawn)
inactive: endpoint: median survival time, dose: 100.0 mg/kg/injection, schedule: Q01DX009 (ip), vehicle: Klucel (hydroxypropylcellulose) (HPC) 97 % of control | endpoint: median survival time, dose: 200.0 mg/kg/injection, schedule: Q01DX009 (ip), vehicle: Klucel (hydroxypropylcellulose) (HPC) 87 % of control

CC1(C)C/C(=C\c2ccccc2)C(=O)c2ccccc21
inactive: [2] 107 % of control | [3] 96 % of control | [4] 96 % of control

COc1ccc(Cl)cc1NC(=O)Oc1ccc(C=O)cc1OC
inactive: [5] 102 % of control and 114 % of control | [6] 98 % of control and 104 % of control | [7] 104 % of control and 109 % of control

CNC(=O)Oc1cccc(NC(=O)OCC#CCCl)c1
inactive: [8] 92 % of control | [9] 90 % of control | [10] 90 % of control

CC1(CBr)OCCCO1
inactive: [1] 96 % of control | endpoint: mean survival time, dose: 25.0 mg/kg/injection, schedule: Q04DX002 (ip), vehicle: saline 93 % of control | [11] 103 % of control | endpoint: mean survival time, dose: 50.0 mg/kg/injection, schedule: Q04DX002 (ip), vehicle: saline 93 % of control | [12] 103 % of control | [13] 95 % of control | [14] 93 % of control

COc1cc(C=O)ccc1OC(=O)Nc1cc(C)ccc1C
inactive: [1] 100 % of control and 91 % of control | endpoint: mean survival time, dose: 50.0 mg/kg/injection, schedule: Q01DX001 (ip), vehicle: saline with Tween-80 96 % of control | [11] 97 % of control and 101 % of control | [8] 97 % of control | [13] 91 % of control and 92 % of control | [9] 94 % of control and 92 % of control | endpoint: mean survival time, dose: 200.0 mg/kg/injection, schedule: Q04DX002 (ip), vehicle: saline with Tween-80 94 % of control and 106 % of control | endpoint: mean survival time, dose: 400.0 mg/kg/injection, schedule: Q04DX002 (ip), vehicle: saline with Tween-80 94 % of control and 92 % of control

C1CNC2CCCC2C1 (stereo not drawn)
inactive: endpoint: mean survival time, dose: 75.0 mg/kg/injection, schedule: Q01DX001 (ip), vehicle: carboxymethylcellulose (CMC) 103 % of control

N#Cc1nccc2ccccc12
inactive: [15] 106 % of control | [16] 103 % of control | endpoint: mean survival time, dose: 400.0 mg/kg/injection, schedule: Q04DX002 (ip), vehicle: Klucel (hydroxypropylcellulose) (HPC) 100 % of control

CCCCCCCCCCCCSc1nccnc1C
inactive: [17] 113 % of control | [5] 106 % of control | [6] 92 % of control

COC(=O)C(CC/C(=N\NC(N)=O)c1ccccc1)C(=O)OC
inactive: [11] 98 % of control | [12] 98 % of control | endpoint: mean survival time, dose: 200.0 mg/kg/injection, schedule: Q01DX009 (ip), vehicle: saline with Tween-80 91 % of control

O=C(c1ccccc1)C1CCCC1
inactive: [15] 89 % of control | [16] 105 % of control

Cc1ccc(NC(=O)Oc2ccc(-c3ccccc3)cc2Br)c(Br)c1
inactive: [5] 93 % of control | [6] 94 % of control | [7] 91 % of control

CC(C)(C)c1ccc(CBr)cc1
inactive: endpoint: mean survival time, dose: 25.0 mg/kg/injection, schedule: Q04DX002 (ip), vehicle: Klucel (hydroxypropylcellulose) (HPC) 102 % of control | endpoint: mean survival time, dose: 50.0 mg/kg/injection, schedule: Q04DX002 (ip), vehicle: Klucel (hydroxypropylcellulose) (HPC) 94 % of control | [15] 94 % of control

NC(=O)C1(N2CCCC2)CCN(Cc2ccccc2)CC1
inactive: [17] 94 % of control | [5] 97 % of control | endpoint: mean survival time, dose: 100.0 mg/kg/injection, schedule: Q04DX003 (ip), vehicle: Klucel (hydroxypropylcellulose) (HPC) 96 % of control | [6] 90 % of control | endpoint: mean survival time, dose: 200.0 mg/kg/injection, schedule: Q04DX003 (ip), vehicle: Klucel (hydroxypropylcellulose) (HPC) 93 % of control

OC1(c2ccccc2)CCN(C/C=C/c2ccccc2Cl)CC1
inactive: [2] 92 % of control | [3] 93 % of control | [4] 90 % of control

CC(C)OC(C(=O)O)c1ccccc1 (stereo not drawn)
inactive: endpoint: mean survival time, dose: 100.0 mg/kg/injection, schedule: Q01DX001 (ip), vehicle: carboxymethylcellulose (CMC) 101 % of control | endpoint: mean survival time, dose: 200.0 mg/kg/injection, schedule: Q01DX001 (ip), vehicle: carboxymethylcellulose (CMC) 101 % of control

O=C(Nc1ccc(Cl)cc1)Oc1ccc2ccccc2c1
inactive: [18] 103 % of control | endpoint: mean survival time, dose: 200.0 mg/kg/injection, schedule: Q04DX003 (ip), vehicle: saline 92 % of control | endpoint: mean survival time, dose: 400.0 mg/kg/injection, schedule: Q04DX003 (ip), vehicle: saline 97 % of control

C#CC(=O)c1ccccc1
inactive: endpoint: mean survival time, dose: 4.7 mg/kg/injection, schedule: Q01DX009 (ip), vehicle: saline with Tween-80 94 % of control | endpoint: mean survival time, dose: 18.8 mg/kg/injection, schedule: Q01DX001 (ip), vehicle: saline 98 % of control | endpoint: mean survival time, dose: 37.5 mg/kg/injection, schedule: Q01DX001 (ip), vehicle: saline 104 % of control

CC(C)=CCC(C#N)(CCN(C)C)c1cccc2ccccc12 (stereo not drawn)
inactive: endpoint: mean survival time, dose: 25.0 mg/kg/injection, schedule: Q01DX009 (ip), vehicle: saline 98 % of control | endpoint: mean survival time, dose: 50.0 mg/kg/injection, schedule: Q01DX009 (ip), vehicle: saline 101 % of control | endpoint: mean survival time, dose: 100.0 mg/kg/injection, schedule: Q01DX009 (ip), vehicle: saline 94 % of control | [18] 98 % of control

Nc1c2ccccc2nc2ccccc12
inactive: endpoint: mean survival time, dose: 5.0 mg/kg/injection, schedule: Q01DX009 (ip), vehicle: Klucel (hydroxypropylcellulose) (HPC) 105 % of control | endpoint: mean survival time, dose: 10.0 mg/kg/injection, schedule: Q01DX009 (ip), vehicle: Klucel (hydroxypropylcellulose) (HPC) 98 % of control | endpoint: mean survival time, dose: 15.0 mg/kg/injection, schedule: Q01DX009 (ip), vehicle: Klucel (hydroxypropylcellulose) (HPC) 103 % of control | [2] 86 % of control | [3] 86 % of control

CCCCCCC(C)NCCO (stereo not drawn)
inactive: endpoint: mean survival time, dose: 5.0 mg/kg/injection, schedule: Q01DX001 (ip), vehicle: saline 97 % of control | endpoint: mean survival time, dose: 10.0 mg/kg/injection, schedule: Q01DX001 (ip), vehicle: saline 106 % of control | endpoint: mean survival time, dose: 20.0 mg/kg/injection, schedule: Q01DX001 (ip), vehicle: saline 96 % of control | endpoint: mean survival time, dose: 40.0 mg/kg/injection, schedule: Q01DX001 (ip), vehicle: saline 94 % of control | endpoint: mean survival time, dose: 80.0 mg/kg/injection, schedule: Q01DX001 (ip), vehicle: saline 100 % of control

c1ccc2c3c(ccc2c1)OCCCCCOc1ccc2ccccc2c1-c1c(ccc2ccccc12)OCCOCCOc1ccc2ccccc2c1-3
inactive: [8] 92 % of control | [9] 92 % of control | [10] 98 % of control

COc1ccc(CC(=O)OOC(C)(C)C)cc1
inactive: [2] 100 % of control | [3] 92 % of control

Cc1cccc(C)c1N=C/C=C/c1ccccc1
inactive: [5] 100 % of control | [6] 88 % of control | [7] 102 % of control

COc1ccc(OC(C)OCCOCCO)cc1 (stereo not drawn)
inactive: [14] 107 % of control | endpoint: mean survival time, dose: 200.0 mg/kg/injection, schedule: Q04DX002 (ip), vehicle: saline 93 % of control | endpoint: mean survival time, dose: 400.0 mg/kg/injection, schedule: Q04DX002 (ip), vehicle: saline 107 % of control
